Data on 17 molecules can be found in US10766884B2 (Pfizer Inc., priority 2018, dated 2020).

One assay addresses CDK4/Cyclin D1 (Homo sapiens (Human), UniProt P11802). As to the kind of experiment: CDK4/Cyclin D1 mobility shift assay. In kind it is biochemical. The note with it: activated CDK4/Cyclin D1, 3.5 mM ATP, Morrison fit; read-out: CDK4D1 Ki. Here is the method:
The purpose CDK4/Cyclin D1 assay is to evaluate the inhibition (% inhibition, Kiapp and Ki values) in the presence of small molecule inhibitors by using a fluorescence based microfluidic mobility shift assay. […] The mobility shift assay electrophoretically separates the fluorescently labeled peptides (substrate and phosphorylated product) following the kinase reaction. Both substrate and product are measured and the ratio of these values is used to generate % Conversion of substrate to product by the LabChip EZ Reader.
The reaction was stopped after 195 minutes by the addition of 50 μL of 30 mM EDTA. Ki determinations were made from a plot of the fractional velocity as a function of inhibitor concentration fit to the Morrison equation with the enzyme concentration as a variable.
(§1) For CDK4 and CDK6 mobility shift assays, see also Morrison, J. F. (1969) Kinetics of the reversible inhibition of enzyme-catalysed reactions by tight-binding inhibitors, Biochimica et biophysica acta 185, 269-286; and Murphy, D. J. (2004) Determination of accurate KI values for tight-binding enzyme inhibitors: an in silico study of experimental error and assay design, Analytical biochemistry 327, 61-67.

The target in a further assay is CDK4 (Homo sapiens (Human), UniProt P11802). As to the kind of experiment: Phospho-Serine 795 Rb ELISA assay in JEKO-1 cells. Conditions: overnight treatment, phospho-Rb S795, read-out: CDK4 pRB S795 ELISA JEKO-1 cells IC50. In kind it is cell-based. Here is the method:
(§2) JEKO-1 or MV4-11 cells were seeded at 15,000 or 20,000 cells per well, respectively, in 100 μL growth media and allowed to incubate at 37° C. with 5% CO2 overnight. The following day, compounds were serially diluted from a 10 mM top dose for an 11-point 3-fold dilution curve in DMSO. Compounds were intermediately diluted 1:200 into growth media prior to diluting 1:5 on cells for final concentration 10 μM to 0.1 nM in 0.1% DMSO on cells. JEKO-1 and MV4-11 cells were treated were treated overnight, at 37° C. with 5% CO2. Cells were lysed in 100 μL/well CST lysis buffer on ice and transferred to pre-coated and blocked anti-phospho-Ser795 Rb ELISA plates for overnight incubation at 4° C. Plates were washed to remove residual, unbound cellular proteins and total Rb detection antibody added for 90 minutes at 37° C. Following wash to remove unbound total Rb antibody, the HRP tagged antibody was allowed to bind for 30 minutes at 37° C. Following wash to remove unbound HRP antibody, Glo Substrate Reagent was added and incubated protected from light for 5 to 10 minutes. Plates were read in luminescence mode and IC50 values calculated.
For orientation: An ELISA detects its analyte on a solid surface through an enzyme-linked reagent.

The target in the next assay is CDK6/Cyclin D3 (Homo sapiens (Human), UniProt Q00534). Description: CDK6/Cyclin D3 mobility shift assay. The format is biochemical. Conditions: activated CDK6/Cyclin D3, 3.5 mM ATP, Morrison fit; read-out: CDK6_D3 Ki. Here is the method:
The purpose of the CDK6/Cyclin D3 assay is to evaluate the inhibition (% inhibition, Kiapp and Ki values) in the presence of small molecule inhibitors by using a fluorescence based microfluidic mobility shift assay. […] The mobility shift assay electrophoretically separates the fluorescently labeled peptides (substrate and phosphorylated product) following the kinase reaction. Both substrate and product are measured and the ratio of these values is used to generate % conversion of substrate to product by the LabChip EZ Reader.
The reaction was stopped after 95 minutes by the addition of 50 μL of 30 mM EDTA. Ki determinations were made from a plot of the fractional velocity as a function of inhibitor concentration fit to the Morrison equation with the enzyme concentration as a variable.
as §1

For the next assay, the target named is CDK6 (Homo sapiens (Human), UniProt Q00534). As to the kind of experiment: Phospho-Serine 795 Rb ELISA assay in MV4-11 cells. Conditions: overnight treatment, phospho-Rb S795, read-out: CDK6 pRB S795 ELISA MV4-11 cells IC50. The format is cell-based. As for the experimental part:
as §2

Chain of CDK4/Cyclin D1 (P11802 whole entry): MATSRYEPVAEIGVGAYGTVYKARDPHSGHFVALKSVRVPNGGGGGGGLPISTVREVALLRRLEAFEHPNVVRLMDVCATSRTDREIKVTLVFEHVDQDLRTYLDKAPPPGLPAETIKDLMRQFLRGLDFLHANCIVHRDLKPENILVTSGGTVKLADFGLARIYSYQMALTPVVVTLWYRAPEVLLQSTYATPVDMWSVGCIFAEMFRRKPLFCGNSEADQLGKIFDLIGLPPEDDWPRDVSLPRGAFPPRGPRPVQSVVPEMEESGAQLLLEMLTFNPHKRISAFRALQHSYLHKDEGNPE
Chain of CDK4/Cyclin D1 (P24385 whole entry partner): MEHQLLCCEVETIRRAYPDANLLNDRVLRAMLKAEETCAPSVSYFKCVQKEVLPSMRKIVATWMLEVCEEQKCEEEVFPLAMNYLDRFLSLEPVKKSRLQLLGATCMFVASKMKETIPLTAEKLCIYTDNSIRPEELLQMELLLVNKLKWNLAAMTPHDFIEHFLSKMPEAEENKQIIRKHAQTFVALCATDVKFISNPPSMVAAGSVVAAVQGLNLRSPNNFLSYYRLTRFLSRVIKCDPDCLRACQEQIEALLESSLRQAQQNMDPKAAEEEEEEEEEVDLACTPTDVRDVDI
Chain of CDK4 (P11802 2-303): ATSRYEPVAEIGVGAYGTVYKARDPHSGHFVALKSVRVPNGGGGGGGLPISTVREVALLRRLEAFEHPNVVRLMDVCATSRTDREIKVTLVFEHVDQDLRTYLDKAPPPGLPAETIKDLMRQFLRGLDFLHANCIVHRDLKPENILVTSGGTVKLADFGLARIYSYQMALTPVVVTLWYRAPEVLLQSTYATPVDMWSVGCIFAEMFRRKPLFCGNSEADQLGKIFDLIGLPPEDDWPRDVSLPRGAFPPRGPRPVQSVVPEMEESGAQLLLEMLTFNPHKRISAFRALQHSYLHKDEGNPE
Chain of CDK4 (P24385 whole entry partner): as the sequence (P24385 whole entry partner) above
Chain of CDK6 (Q00534 whole entry): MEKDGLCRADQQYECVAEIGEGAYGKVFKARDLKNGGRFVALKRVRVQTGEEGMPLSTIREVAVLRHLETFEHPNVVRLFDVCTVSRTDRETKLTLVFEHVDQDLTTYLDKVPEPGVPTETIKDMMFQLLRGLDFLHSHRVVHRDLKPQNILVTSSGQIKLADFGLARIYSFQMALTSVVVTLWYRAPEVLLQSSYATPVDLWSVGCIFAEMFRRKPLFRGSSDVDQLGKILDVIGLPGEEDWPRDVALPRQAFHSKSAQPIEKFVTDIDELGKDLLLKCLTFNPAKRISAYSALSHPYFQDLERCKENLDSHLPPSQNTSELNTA
Chain of CDK6 (P30281 whole entry partner): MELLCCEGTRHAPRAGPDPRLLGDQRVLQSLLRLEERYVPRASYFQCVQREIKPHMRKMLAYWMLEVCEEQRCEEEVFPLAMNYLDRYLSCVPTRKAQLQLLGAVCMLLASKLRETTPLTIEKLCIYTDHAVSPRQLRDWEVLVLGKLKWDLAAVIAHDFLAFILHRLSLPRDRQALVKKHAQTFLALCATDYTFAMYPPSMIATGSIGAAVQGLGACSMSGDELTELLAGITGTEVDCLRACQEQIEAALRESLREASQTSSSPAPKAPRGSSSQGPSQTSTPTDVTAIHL
Chain of CDK6/Cyclin D3 (Q00534 whole entry): as the sequence (Q00534 whole entry) above
Chain of CDK6/Cyclin D3 (P30281 whole entry partner): as the sequence (P30281 whole entry partner) above

`Cc1nc2c(F)cc(-c3nc(N[C@@H]4CCOC[C@H]4O)ncc3Cl)cc2n1C(C)(C)CN` [Example A52, 3-({4-[1-(1-amino-2-methylpropan-2-yl)-4-fluoro-2-methyl-1H-benzimidazol-6-yl]-5-chloropyrimidin-2-yl}amino)-1,5-anhydro-2,3-dideoxy-D-threo-pentitol]: the Ki (commonly the equilibrium dissociation constant of an inhibitor or competing ligand from its target) turned out to be 2.7 nM at CDK4/Cyclin D1 and 60.1 nM at CDK6/Cyclin D3. Besides, the half-inhibitory concentration (IC50) (commonly the point on the concentration scale where inhibition reaches its midpoint) at CDK4 came out at 202 nM; on CDK6, 973 nM.

As for `CC(C)n1c(CNC2CC2)nc2c(F)cc(-c3nc(N[C@@H]4CCOC[C@H]4O)ncc3Cl)cc21` [Example H11, 1,5-anhydro-3-[(5-chloro-4-{2-[(cyclopropylamino)methyl]-4-fluoro-1-(propan-2-yl)-1H-benzimidazol-6-yl}pyrimidin-2-yl)amino]-2,3-dideoxy-D-threo-pentitol], the Ki on CDK4/Cyclin D1 worked out at 0.7 nM; at CDK6/Cyclin D3, 22.1 nM. Besides, the IC50 stood at 43.4 nM on CDK4 and 295 nM at CDK6.

`CC(N)c1nc2c(F)cc(-c3nc(N[C@@H]4CCN(S(C)(=O)=O)C[C@H]4O)ncc3Cl)cc2n1C(C)C` (single isomer, unassigned) [Example A48]: the results for the inhibition constant (Ki) at CDK4/Cyclin D1 and on CDK6/Cyclin D3 were 0.1 nM and 2.3 nM, respectively. The IC50 came to 36.5 nM on CDK4 and 58.9 nM on CDK6.

Turning to `Cc1nc2cc(Cl)c(-c3nc(N[C@@H]4CCN(S(C)(=O)=O)C[C@H]4O)ncc3F)cc2n1C(C)C` [Example C01, (3R,4R)-4-({4-[5-chloro-2-methyl-1-(propan-2-yl)-1H-benzimidazol-6-yl]-5-fluoropyrimidin-2-yl}amino)-1-(methanesulfonyl)piperidin-3-ol], the Ki at CDK4/Cyclin D1 was 5.2 nM; at CDK6/Cyclin D3 it was 98.1 nM. For the same molecule, the half-inhibitory concentration (IC50) at CDK4 was determined as 176 nM; at CDK6 it was 1380 nM.

With `CC(C)n1c(CN2CC(O)C2)nc2c(F)cc(-c3nc(N[C@@H]4CCOC[C@H]4O)ncc3Cl)cc21` [Example H03, 1,5-anhydro-3-[(5-chloro-4-{4-fluoro-2-[(3-hydroxyazetidin-1-yl)methyl]-1-(propan-2-yl)-1H-benzimidazol-6-yl}pyrimidin-2-yl)amino]-2,3-dideoxy-D-threo-pentitol], the values for the Ki on CDK4/Cyclin D1 and at CDK6/Cyclin D3 were 1.8 nM and 66.9 nM, respectively. Further, the half-maximal inhibitory concentration (IC50) on CDK4 amounted to 155 nM; at CDK6, 423 nM.

Consider `CC(C)n1cnc2c(F)cc(-c3nc(N[C@@H]4CCN(C(=O)C5(N)CC(F)(F)C5)C[C@H]4O)ncc3Cl)cc21` [Example F29, (1-amino-3,3-difluorocyclobutyl)[(3R,4R)-4-({5-chloro-4-[4-fluoro-1-(propan-2-yl)-1H-benzimidazol-6-yl]pyrimidin-2-yl}amino)-3-hydroxypiperidin-1-yl]methanone], for which the values for the inhibitory constant (Ki) on CDK4/Cyclin D1 and on CDK6/Cyclin D3 were 1.8 nM and 23.3 nM, respectively. In addition, the IC50 came out at 246 nM at CDK4 and 644 nM at CDK6.

Regarding `CNC(=O)CN1CC[C@@H](Nc2cc(-c3ccc4ncn(C(C)(C)C)c4n3)c(Cl)cn2)[C@H](O)C1` [Example F33, 2-[(3R,4R)-4-{[4-(3-tert-butyl-3H-imidazo[4,5-b]pyridin-5-yl)-5-chloropyridin-2-yl]amino}-3-hydroxypiperidin-1-yl]-N-methylacetamide], the Ki on CDK4/Cyclin D1 is 0.2 nM; on CDK6/Cyclin D3 it was 5.2 nM. Further, the IC50 at CDK4 amounted to 24.6 nM; on CDK6, 113 nM.

Turning to `Cc1nc2cc(F)c(-c3nc(N[C@@H]4CCN(S(C)(=O)=O)C[C@H]4O)ncc3F)cc2n1C(C)C` [Example A07], the inhibition constant Ki came to 1.8 nM at CDK4/Cyclin D1 and 28 nM at CDK6/Cyclin D3. In addition, the IC50 amounted to 182 nM on CDK4 and 520 nM at CDK6.

For the molecule `CC1(C)OCCn2nc3c(F)cc(-c4nc(N[C@@H]5CCOC[C@H]5O)ncc4F)cc3c21` [Example A80, 1,5-anhydro-2,3-dideoxy-3-{[5-fluoro-4-(7-fluoro-1,1-dimethyl-3,4-dihydro-1H-[1,4]oxazino[4,3-b]indazol-9-yl)pyrimidin-2-yl]amino}-D-threo-pentitol], the Ki amounted to 0.5 nM at CDK4/Cyclin D1 and 14.7 nM on CDK6/Cyclin D3. Further, the results for the IC50 at CDK4 and on CDK6 were 72.9 nM and 217 nM, respectively.

With `Cc1cc(-c2nc(N[C@@H]3CCN(S(C)(=O)=O)C[C@H]3O)ncc2F)cc2c1nc(C)n2C(C)C` [Example A79, (3R,4R)-4-({4-[2,4-dimethyl-1-(propan-2-yl)-1H-benzimidazol-6-yl]-5-fluoropyrimidin-2-yl}amino)-1-(methanesulfonyl)piperidin-3-ol], the inhibitory constant (Ki) at CDK4/Cyclin D1 was 1.8 nM; on CDK6/Cyclin D3, 17.6 nM. For the same molecule, the 50% inhibitory concentration (IC50) on CDK4 was 598 nM; at CDK6, 1140 nM.

Turning to `CC(C)n1c(C2CNC2)nc2c(F)cc(-c3nc(N[C@@H]4CCOC[C@H]4O)ncc3Cl)cc21` [Example C02, 1,5-anhydro-3-({4-[2-(azetidin-3-yl)-4-fluoro-1-(propan-2-yl)-1H-benzimidazol-6-yl]-5-chloropyrimidin-2-yl}amino)-2,3-dideoxy-D-threo-pentitol], the inhibitory constant (Ki) on CDK4/Cyclin D1 stood at 4.1 nM; on CDK6/Cyclin D3 it was 89.3 nM. Also, the half-inhibitory concentration (IC50) on CDK4 was 584 nM; on CDK6 it was 1350 nM.

In the case of `Cc1nc2c(F)cc(-c3nc(N[C@@H]4CCN(S(C)(=O)=O)C[C@H]4O)ncc3F)cc2n1C(C)C` [Example A02], the Ki was found to be 0.1 nM at CDK4/Cyclin D1 and 2.5 nM on CDK6/Cyclin D3. For the same molecule, the values for the 50% inhibitory concentration (IC50) at CDK4 and on CDK6 were 88.6 nM and 163 nM, respectively.

With `CC(C)(C)n1cnc2c(F)cc(-c3nc(N[C@@H]4CCN(S(C)(=O)=O)C[C@H]4O)ncc3F)cc21` [Example F15, (3R,4R)-4-{[4-(1-tert-butyl-4-fluoro-1H-benzimidazol-6-yl)-5-fluoropyrimidin-2-yl]amino}-1-(methanesulfonyl)piperidin-3-ol], the IC50 was 34.4 nM at CDK4 and 39.8 nM on CDK6. For the same molecule, the inhibition constant Ki at CDK6/Cyclin D3 worked out at 1 nM.

As to `CC(C)n1c(CNC2COC2)nc2c(F)cc(-c3nc(N[C@@H]4CCOC[C@H]4O)ncc3Cl)cc21` [Example H05, 1,5-anhydro-3-({5-chloro-4-[4-fluoro-2-{[(oxetan-3-yl)amino]methyl}-1-(propan-2-yl)-1H-benzimidazol-6-yl]pyrimidin-2-yl}amino)-2,3-dideoxy-D-threo-pentitol], the results for the Ki on CDK4/Cyclin D1 and at CDK6/Cyclin D3 were 4.5 nM and 93.3 nM, respectively. The IC50 is 249 nM on CDK4 and 1470 nM on CDK6.

As to `CC(C)n1c(C2CCO2)nc2c(F)cc(-c3nc(N[C@@H]4CCN(S(C)(=O)=O)C[C@H]4O)ncc3Cl)cc21` (single isomer, unassigned) [Example A31], the Ki at CDK4/Cyclin D1 is 0.5 nM; on CDK6/Cyclin D3 it was 7.1 nM. For the same molecule, the values for the IC50 on CDK4 and at CDK6 were 23.5 nM and 87 nM, respectively.

Regarding `Cc1nc2c(F)cc(-c3nc(N[C@@H]4CCN(S(C)(=O)=O)C[C@H]4O)ncc3F)cc2n1C1CNC1` [Example A88, (3R,4R)-4-({4-[1-(azetidin-3-yl)-4-fluoro-2-methyl-1H-benzimidazol-6-yl]-5-fluoropyrimidin-2-yl}amino)-1-(methanesulfonyl)piperidin-3-ol], the values for the Ki on CDK4/Cyclin D1 and at CDK6/Cyclin D3 were 4.5 nM and 80.4 nM, respectively. Further, the IC50 at CDK4 is 7320 nM; at CDK6, 10000 nM.

In the case of `Cc1nc2ccc(-c3nc(N[C@@H]4CCN(S(C)(=O)=O)C[C@H]4O)ncc3F)cc2n1C(C)C` [Example A76, (3R,4R)-4-({5-fluoro-4-[2-methyl-1-(propan-2-yl)-1H-benzimidazol-6-yl]pyrimidin-2-yl}amino)-1-(methanesulfonyl)piperidin-3-ol], the Ki on CDK6/Cyclin D3 came to 6.3 nM. Moreover, the IC50 on CDK6 stood at 242 nM.
